Laboratory results reported in PubChem BioAssay (NCI).
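Tested at 5 concentrations; 48 h exposure; 96-well plates; endpoints linearly interpolated, else capped at highest concentration. The concentration for full growth arrest is given as TGI.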

Legend:
Experiment in all cases: DTP human tumour cell line panel, 48 h
[1] = system: SW-620 colon
[2] = system: PC-3 prostate
[3] = system: UO-31 renal
[4] = system: NCI-H460 lung
[5] = system: COLO 205 colon
[6] = system: MOLT-4 leukemia
[7] = system: LOX IMVI melanoma
[8] = system: IGROV1 ovarian
[9] = system: HOP-92 NSCLC
[10] = system: RXF 393 renal
[11] = system: HS 578T breast
[12] = system: OVCAR-8 ovarian
[13] = system: MDA-MB-435
[14] = system: K-562 leukemia
[15] = system: DU-145 prostate
[16] = system: U251 CNS
[17] = system: ACHN renal
[18] = system: EKVX NSCLC
[19] = system: CAKI-1 renal
[20] = system: TK-10 renal
[21] = system: A549 NSCLC
[22] = system: OVCAR-5 ovarian
[23] = system: KM12 colon
[24] = system: SK-MEL-5 melanoma
[25] = system: SK-MEL-28 melanoma
[26] = system: SN12C renal
[27] = system: CCRF-CEM leukemia
[28] = system: NCI-H226 lung
[29] = system: HOP-62 NSCLC
[30] = system: SNB-75 CNS
[31] = system: MCF7 breast
[32] = system: M14 melanoma
[33] = system: MALME-3M melanoma
[34] = system: HCC-2998 colon
[35] = system: A498 renal
[36] = system: SNB-19 CNS
[37] = system: NCI-H522 lung
[38] = system: HT29 colon
[39] = system: T-47D breast
[40] = system: MDA-N
[41] = system: BT-549 breast
[42] = system: NCI-H23 lung
[43] = system: SK-MEL-2 melanoma
[44] = system: NCI/ADR-RES ovarian
[45] = system: UACC-257 melanoma
[46] = system: OVCAR-3 ovarian
[47] = system: SF-268 CNS
[48] = system: RPMI-8226 leukemia
[49] = system: SF-539 CNS
[50] = system: MDA-MB-231 breast
[51] = system: SF-295 CNS
[52] = system: HCT-116 colon
[53] = system: SK-OV-3 ovarian
[54] = system: HL-60(TB) leukemia
[55] = system: HCT-15 colon
[56] = system: UACC-62 melanoma
[57] = system: OVCAR-4 ovarian
[58] = system: 786-0 renal
[59] = system: SR leukemia

SMILES: O=c1cnn(CCOCP(=O)(O)O)c(=O)[nH]1
- TGI [1]: > 100 µM
- TGI [2]: > 100 µM
- TGI [3]: > 100 µM
- TGI [4]: > 100 µM
- TGI [5]: > 100 µM
- TGI [6]: > 100 µM
- TGI [7]: > 100 µM
- TGI [8]: > 100 µM
- TGI [9]: > 100 µM
- TGI [10]: > 100 µM
- TGI [11]: > 100 µM
- TGI [12]: > 100 µM
- TGI [13]: > 100 µM
- TGI [14]: > 100 µM
- TGI [15]: > 100 µM
- TGI [16]: > 100 µM
- TGI [17]: > 100 µM
- TGI [18]: > 100 µM
- TGI [19]: > 100 µM
- TGI [20]: > 100 µM
- TGI [21]: > 100 µM
- TGI [22]: > 100 µM
- TGI [23]: > 100 µM
- TGI [24]: > 100 µM
- TGI [25]: > 100 µM
- TGI [26]: > 100 µM
- TGI [27]: > 100 µM
- TGI [28]: > 100 µM
- TGI [29]: > 100 µM
- TGI [30]: > 100 µM
- TGI [31]: > 100 µM
- TGI [32]: > 100 µM
- TGI [33]: > 100 µM
- TGI [34]: > 100 µM
- TGI [35]: > 100 µM
- TGI [36]: > 100 µM
- TGI [37]: > 100 µM
- TGI [38]: > 100 µM
- TGI [39]: > 100 µM
- TGI [40]: > 100 µM
- TGI [41]: > 100 µM
- TGI [42]: > 100 µM
- TGI [43]: > 100 µM
- TGI [44]: > 100 µM
- TGI [45]: > 100 µM
- TGI [46]: > 100 µM
- TGI [47]: > 100 µM
- TGI [48]: > 100 µM
- TGI [49]: > 100 µM
- TGI [50]: > 100 µM

SMILES: O=C(CCc1ccccc1)On1c(-c2ccccc2)nc2ccccc2c1=S
- TGI [51]: > 100 µM
- TGI [1]: > 100 µM
- TGI [2]: 56.3 µM
- TGI [3]: 39.3 µM
- TGI [4]: > 100 µM
- TGI [5]: > 100 µM
- TGI [6]: 23.3 µM
- TGI [7]: 83.6 µM
- TGI [8]: > 100 µM
- TGI [9]: > 100 µM
- TGI [10]: 57.3 µM
- TGI [11]: > 100 µM
- TGI [52]: 8.81 µM
- TGI [12]: 64.6 µM
- TGI [13]: > 100 µM
- TGI [14]: > 100 µM
- TGI [15]: > 100 µM
- TGI [16]: > 100 µM
- TGI [17]: > 100 µM
- TGI [18]: 52.1 µM
- TGI [19]: > 100 µM
- TGI [20]: > 100 µM
- TGI [21]: > 100 µM
- TGI [22]: 50.5 µM
- TGI [23]: 24 µM
- TGI [24]: 47.2 µM
- TGI [53]: > 100 µM
- TGI [54]: > 100 µM
- TGI [25]: > 100 µM
- TGI [55]: 67.5 µM
- TGI [26]: > 100 µM
- TGI [27]: > 100 µM
- TGI [28]: 29.9 µM
- TGI [29]: 31.5 µM
- TGI [30]: > 100 µM
- TGI [31]: > 100 µM
- TGI [56]: 36.9 µM
- TGI [32]: 44.7 µM
- TGI [33]: 22.6 µM
- TGI [34]: 27.8 µM
- TGI [35]: > 100 µM
- TGI [36]: > 100 µM
- TGI [57]: > 100 µM
- TGI [38]: > 100 µM
- TGI [39]: > 100 µM
- TGI [40]: > 100 µM
- TGI [41]: > 100 µM
- TGI [42]: 28 µM
- TGI [43]: 37.5 µM
- TGI [58]: > 100 µM
- TGI [44]: 79.1 µM
- TGI [45]: > 100 µM
- TGI [46]: > 100 µM
- TGI [47]: > 100 µM
- TGI [48]: > 100 µM
- TGI [49]: 20.7 µM
- TGI [50]: > 100 µM

SMILES: CCn1c(SCC(=O)NNC(=S)NC)nc2ccccc2c1=O
- TGI [51]: > 100 µM
- TGI [1]: > 100 µM
- TGI [2]: > 100 µM
- TGI [3]: > 100 µM
- TGI [4]: 45.7 µM
- TGI [5]: > 100 µM
- TGI [6]: > 100 µM
- TGI [7]: > 100 µM
- TGI [8]: > 100 µM
- TGI [10]: > 100 µM
- TGI [11]: > 100 µM
- TGI [52]: > 100 µM
- TGI [12]: > 100 µM
- TGI [13]: > 100 µM
- TGI [14]: > 100 µM
- TGI [15]: > 100 µM
- TGI [16]: > 100 µM
- TGI [17]: > 100 µM
- TGI [18]: > 100 µM
- TGI [19]: 44.2 µM
- TGI [20]: > 100 µM
- TGI [21]: > 100 µM
- TGI [22]: > 100 µM
- TGI [23]: > 100 µM
- TGI [24]: > 100 µM
- TGI [53]: > 100 µM
- TGI [54]: > 100 µM
- TGI [25]: > 100 µM
- TGI [55]: > 100 µM
- TGI [26]: > 100 µM
- TGI [27]: > 100 µM
- TGI [28]: > 100 µM
- TGI [29]: > 100 µM
- TGI [30]: > 100 µM
- TGI [31]: > 100 µM
- TGI [56]: > 100 µM
- TGI [32]: > 100 µM
- TGI [33]: > 100 µM
- TGI [34]: > 100 µM
- TGI [35]: > 100 µM
- TGI [36]: > 100 µM
- TGI [37]: > 100 µM
- TGI [57]: > 100 µM
- TGI [39]: > 100 µM
- TGI [40]: > 100 µM
- TGI [41]: > 100 µM
- TGI [42]: > 100 µM
- TGI [43]: > 100 µM
- TGI [58]: > 100 µM
- TGI [44]: > 100 µM
- TGI [45]: > 100 µM
- TGI [46]: > 100 µM
- TGI [47]: > 100 µM
- TGI [48]: > 100 µM
- TGI [49]: > 100 µM
- TGI [59]: > 100 µM
- TGI [50]: > 100 µM

SMILES: CCOC(=O)Cc1nc2c(N)ncnc2n1C1OC(COC(C)=O)C(OC(C)=O)C1OC(C)=O (stereo not drawn)
- TGI [51]: > 100 µM
- TGI [1]: > 100 µM
- TGI [2]: > 100 µM
- TGI [3]: > 100 µM
- TGI [4]: > 100 µM
- TGI [5]: > 100 µM
- TGI [6]: > 100 µM
- TGI [7]: > 100 µM
- TGI [8]: > 100 µM
- TGI [9]: > 100 µM
- TGI [11]: > 100 µM
- TGI [52]: > 100 µM
- TGI [12]: > 100 µM
- TGI [13]: > 100 µM
- TGI [14]: > 100 µM
- TGI [15]: > 100 µM
- TGI [16]: > 100 µM
- TGI [17]: > 100 µM
- TGI [18]: > 100 µM
- TGI [19]: > 100 µM
- TGI [20]: > 100 µM
- TGI [21]: > 100 µM
- TGI [23]: > 100 µM
- TGI [24]: > 100 µM
- TGI [53]: > 100 µM
- TGI [54]: > 100 µM
- TGI [25]: > 100 µM
- TGI [55]: > 100 µM
- TGI [26]: > 100 µM
- TGI [27]: > 100 µM
- TGI [28]: > 100 µM
- TGI [29]: > 100 µM
- TGI [31]: > 100 µM
- TGI [56]: > 100 µM
- TGI [32]: > 100 µM
- TGI [33]: > 100 µM
- TGI [34]: > 100 µM
- TGI [35]: > 100 µM
- TGI [36]: > 100 µM
- TGI [37]: > 100 µM
- TGI [38]: > 100 µM
- TGI [39]: > 100 µM
- TGI [40]: > 100 µM
- TGI [41]: > 100 µM
- TGI [42]: > 100 µM
- TGI [58]: > 100 µM
- TGI [44]: > 100 µM
- TGI [45]: > 100 µM
- TGI [46]: > 100 µM
- TGI [47]: > 100 µM
- TGI [48]: > 100 µM
- TGI [49]: > 100 µM
- TGI [59]: > 100 µM
- TGI [50]: > 100 µM
